From paper PMC3006138, “Fexinidazole – A New Oral Nitroimidazole Drug Candidate Entering Clinical Development for the Treatment of Sleeping Sickness” (PLoS Neglected Tropical Diseases, 2010)
Where “and” joins values, the source holds several entries; their conditions need not be identical. Equal entries are not always repeated.

Tests used:
jejunum or liver = conditions: rat, in vivo; cited from earlier work
colon or liver = conditions: mouse, in vivo; cited from earlier work
rat liver DNA = conditions: in vivo; cited from earlier work
Salmonella typhimurium = tested on: Salmonella typhimurium; set-up: method as in ref 58 (Suter et al.); conditions: standard strains, ref 58 (Suter et al.); cited from earlier work
Caco-2 permeability = conditions: human, Caco-2
Description: (§1) Caco-2 [36] or MDR1-MDCK (Madin Darby canine kidney cells transfected with the human multidrug resistance MDR1 gene) cell monolayers were grown to confluence on collagen-coated, microporous, polycarbonate membranes in 12-well microtitre plates. The buffer for the donor chamber was Hanks balanced salt solution with 10 mM HEPES and 15 mM glucose at pH 7.4. The buffer in the receiver chamber contained the same with the addition of 1% bovine serum albumin (BSA). The test article was added at 5 µM in the assay buffer. […] After 2 h, duplicate aliquots were taken from the donor and receiver chambers and assayed via LC/MS. The apparent permeability and recovery were calculated using standard methods.
(§2) The objective of this study was to determine the bi-directional Caco-2 permeability and efflux limited absorption poten tial of thr ee test compoun ds. […]
(§3) 4 . […] Th e test compound dosing concentrations were 5 µM in th e a ssay bu f fer . […] After two hours, a l iquot s wer e t a ken fr om th e r ecei ver an d don or cha m ber s. E a ch det erm ina ti on wa s per for m ed in dupl i cat e. Th e Lucifer Yellow flux was also measur ed for each mon olayer after bein g subjected to th e test compoun ds to en sur e n o damage was in flicted to th e cell mon olayer s durin g th e flux per iod. All samples wer e assayed by LC/MS/MS usin g electrospray ionization. Analytical conditions are outlined in Attachment I. The apparent permeability, Papp, and per cen t r ecover y wer e calculated as follows:
(§4) Papp = (dCr /dt) x Vr/(AxC) (1)
(§5) P er cen t Rec o ver y = 1 0 0 x ( ( V r x C rfi n a l ) + (Vd x Cd fi n a l ))/(Vd x C N) (2) […]
(§6) dCr /dt is th e slope of th e cumulative con cen tration in th e r eceiver compartment ver sus time in µM s -1. […]

[1] = tested on: MDR1 (human, transfected); experiment: MDR1-MDCK permeability; conditions: dog, MDCK-MDR1
Description: as §1
(§7) The objective of this study was to determine the bi-directional MDR1-MDCK permeability and efflux limited absor ption potential of thr ee test compounds. […]
(§8) 4. Th e buff er in th e r ecei ver cha m ber a l so con t a in ed 1% Bovi n e Ser um Al bumin ( BSA) . Th e test compound dosing concentrations were 5 µM in th e a ssay bu f fer . […] After two hours, a l iquot s wer e t a ken fr om th e r ecei ver an d don or cha m ber s. E a ch det erm ina ti on wa s per for m ed in dupl i cat e. Th e Lucifer Yellow flux was also measur ed for each mon olayer after bein g subjected to th e test compoun ds to en sur e n o damage was in flicted to th e cell mon olayer s durin g th e flux per iod. All samples wer e assayed by LC/MS/MS usin g electrospray ionization. Analytical conditions are outlined in Attachment I. The apparent permeability, Papp, and per cen t r ecover y wer e calculated as follows: […]
as §6

human MDR1 = experiment: MDR1-MDCK permeability; conditions: dog, MDCK-MDR1
Description: as §1, §7, §8, §6

T. b. brucei GVR35 [2] = experiment: Chronic (stage 2) infection mouse model; assay type: in vivo; conditions: 40 mg/kg×1 ip, day 21
[3] = tested on: T. b. rhodesiense (STIB 900); experiment: In vitro trypanocidal assay (Alamar Blue); assay type: cell-based, Trypanosoma brucei rhodesiense; conditions: Trypanosoma brucei, 72 h
Description: (§9) 10 µL of Alamar Blue was added for the final 3 h to determine viability. […] The IC50 values were calculated from the sigmoidal inhibition curves. For cytotoxicity, 4×10^4/mL L-6 rat skeletal myoblast cells were used, and incubations and assessments carried out as above.

[4] = tested on: T. b. gambiense (STIB 930); experiment: In vitro trypanocidal assay (Alamar Blue); assay type: cell-based, Trypanosoma brucei gambiense; conditions: Trypanosoma brucei, 72 h
Description: Parasites were cultured with or without the test article at a concentration of 3×10^4/mL in Minimal Essential Medium, according to Baltz et al., with the following modifications: 0.2 mM 2-mercaptoethanol, 1 mM Na-pyruvate, 0.5 mM hypoxanthine and 15% heat inactivated horse serum at 37°C in 5% CO2 in 96-well microtitre plates for 72 h. 10 µL of Alamar Blue was added for the final 3 h to determine viability. The assay was assessed by reading the fluorescence in each well at an excitation wavelength of 536 nm and at an emission wavelength of 588 nm. The IC50 values were calculated from the sigmoidal inhibition curves. For cytotoxicity, 4×10^4/mL L-6 rat skeletal myoblast cells were used, and incubations and assessments carried out as above.

[5] = stage 2 HAT patients; cited from earlier work
T. b. brucei GVR35 [6] = experiment: Chronic (stage 2) infection mouse model; assay type: in vivo
Description: (§10) Female NMRI mice were infected via intraperitoneal injection with bloodstream forms of T. b. rhodesiense STIB900 or T. b. gambiense 130R and treated with test drugs daily for 4 consecutive days, starting on day 3 or 7 after infection, respectively, or with bloodstream forms of T. b brucei GVR35 and treated daily from day 21 after infection for 5 days. Parasitemia was evaluated by tail blood examination and surviving, aparasitaemic mice at 60, 90, or 180 days, respectively, were considered cured.

L-6 rat myoblast cells = experiment: Cytotoxicity assay; assay type: cell-based; conditions: 72 h
Description: as §9

T. b. gambiense 130R = experiment: Acute infection mouse model; assay type: in vivo; conditions: 4 mg/kg×4 days ip
Description: as §10

Caco-2 cell monolayers = experiment: in vitro; conditions: Caco-2
Description: as §1, §2, §3, §4, §5, §6

[7] = tested on: MDR1-MDCK cell monolayers; experiment: MDR1-MDCK permeability; conditions: plate certification
Description: as §1, §7, §8, §6

[8] = 15 mg/kg×5 days ip, separate experiment

Compound: O=c1[nH]c2cc([N+](=O)[O-])cc(CNCP(=O)(O)O)c2[nH]c1=O [AMP397]
- genetic damage in jejunum or liver (jejunum or liver): did not detect any genetic damage
- mutagenicity in colon or liver (colon or liver): No evidence of mutagenicity
- DNA binding in rat liver (rat liver DNA): failed to show any DNA binding
- bacterial mutagenicity (Salmonella typhimurium): positive Ames test results

Compound: C[C@H]1O[C@@H](O[C@H]2[C@@H](O)C[C@H](O[C@H]3[C@@H](O)C[C@H](O[C@H]4CC[C@@]5(C)[C@H](CC[C@@H]6[C@@H]5C[C@@H](O)[C@]5(C)[C@@H](C7=CC(=O)OC7)CC[C@]65O)C4)O[C@@H]3C)O[C@@H]2C)C[C@H](O)[C@@H]1O [Digoxin, reference compound]
- Papp A→B (Caco-2 permeability): 0.53 ×10⁻⁶ cm/s
- Papp B→A (Caco-2 permeability): 10.4 ×10⁻⁶ cm/s
- efflux ratio (Caco-2 permeability): 19.6
- efflux ratio [1]: 68.8
- Papp A→B (human MDR1): 0.13 ×10⁻⁶ cm/s
- Papp B→A (human MDR1): 8.83 ×10⁻⁶ cm/s

Compound: N=C(N)c1ccc(/N=N/Nc2ccc(C(=N)N)cc2)cc1 [Diminazene, Diminazine diaceturate]
- Cured/infected (T. b. brucei GVR35 [2]): 0/4
- Mean relapse time (T. b. brucei GVR35 [2]): 48.6 days

Compound: Nc1nc(N)nc(Nc2ccc([As]3SCC(CO)S3)cc2)n1 (stereo not shown) [Melarsoprol, reference compound]
- IC50 [3]: 4 to 9 nM
- IC50 [4]: 0.0015 µg/mL to 0.003 µg/mL and 4 nM to 6 nM
- treatment-related mortality [5]: ~5%
- Cured/infected (T. b. brucei GVR35 [6]; 10 mg/kg×5 days ip): 2/8
- Mean relapse time (T. b. brucei GVR35 [6]; 10 mg/kg×5 days ip): >96.6 days
- Cured/infected (T. b. brucei GVR35 [6]; [8]): 4/5
- Mean relapse time (T. b. brucei GVR35 [6]; [8]): >180 days
- cure (T. b. brucei GVR35 [6]; five daily ip injections of 15 mg/kg): 100%
- IC50 (L-6 rat myoblast cells): 1.3 µg/mL and 3.3 µM
- Cured/infected (T. b. gambiense 130R): 4/4
- Mean relapse time (T. b. gambiense 130R): >90 days

Compound: Lucifer Yellow [reference compound]
- Papp (Caco-2 cell monolayers): 0.23 10-6 cm/s
- Papp [7]: 0.12 10-6 cm/s
